Patent US12310364B2, “Safened compositions comprising pyridine carboxylate herbicides and cloquintocet” (Corteva Agriscience LLC, priority 2018, dated 2025)
Where “and” joins values, the source holds several entries; their conditions need not be identical. Equal entries are not always repeated.

Legend:
Assay type in all cases: in vivo
[1] = system: Hordeum vulgare (winter barley), HORVW; test: Greenhouse postemergence safening trial, visual injury on winter barley
Protocol: (§1) Greenhouse Trial Methodology-Evaluation of Postemergence Herbicidal […] in Crops […] When required to ensure good germination and healthy plants, a fungicide treatment and/or other chemical or physical treatment was applied. The plants were grown for 7-36 days (d) in a greenhouse with an approximate 14-hour (h) photoperiod which was maintained at about 23° C. during the day and 22° C. during the night. Nutrients and water were added on a regular basis and supplemental lighting was provided with overhead metal halide 1000-Watt lamps as necessary. The plants were employed for testing when they reached the second or third true leaf stage. Emulsifiable concentrates of each of each pyridine carboxylate herbicide (Compound A or Compound B) were prepared at 100 grams acid equivalent per liter (g ae/L). […] The concentrated stock solutions were further diluted with an aqueous mixture of 1.25% […] or MSO® Concentrate with LECI-TECH® to obtain stock solutions at reduced application rates for each herbicide. Spray solutions of the herbicide combinations (Compound A or Compound B plus safener) were prepared by adding weighed amounts or aliquots of the safener to the stock solutions of Compound A or Compound B to form 12-mL spray solutions in two-way combinations. […] Control plants were sprayed in the same manner with the solvent blank. All herbicide (component a) application rates are given as “g ae/ha” and all safener (component b) application rates are given as “g ai/ha.” The treated plants and control plants were placed in a greenhouse as described above and watered by sub-irrigation to prevent wash-off of the test compounds.

[2] = system: velvetleaf (ABUTH, Abutilon theophrasti); test: Greenhouse postemergence trial, visual injury on velvetleaf; conditions: Table 19
Description: (§2) Greenhouse Trial Methodology—Evaluation of Postemergence Herbicidal Safening in Crops
(§3) Seeds of the desired test plant species were planted in a 90:10% v/v (volume/volume) mixture of PRO-MIX® BX (Premier Tech Horticulture, Quakertown, PA, USA) and PROFILE® GREENS GRADE™ (Profile Products LLC, Buffalo Grove, IL, USA) planting mixture, which typically has a pH of 5.2 to 6.2 and an organic matter content of at least 50 percent, in plastic pots with a surface area of 103.2 square centimeters (cm^2). When required to ensure good germination and healthy plants, a fungicide treatment and/or other chemical or physical treatment was applied. The plants were grown for 7-36 days (d) in a greenhouse with an approximate 14-hour (h) photoperiod which was maintained at about 23° C. during the day and 22° C. during the night. Nutrients and water were added on a regular basis and supplemental lighting was provided with overhead metal halide 1000-Watt lamps as necessary. The plants were employed for testing when they reached the second or third true leaf stage.
(§4) Emulsifiable concentrates of each of each pyridine carboxylate herbicide (Compound A or Compound B) were prepared at 100 grams acid equivalent per liter (g ae/L). An aliquot of each emulsifiable concentrate was placed in a 25 mL glass vial and diluted with an aqueous mixture of 1.25% (v/v) ACTIROB® B esterified rapeseed oil (Bayer Crop Science, Research Triangle Park, NC, USA) or MSO® Concentrate with LECI-TECH® methylated soybean oil (Loveland Products, Loveland, CO, USA) to obtain concentrated stock solutions at the highest application rate for each herbicide, based upon a 12 milliliter (mL) application volume at a rate of 187 liters per hectare (L/ha). The concentrated stock solutions were further diluted with an aqueous mixture of 1.25% v/v ACTIROB® B or MSO® Concentrate with LECI-TECH® to obtain stock solutions at reduced application rates for each herbicide. Spray solutions of the herbicide combinations (Compound A or Compound B plus safener) were prepared by adding weighed amounts or aliquots of the safener to the stock solutions of Compound A or Compound B to form 12-mL spray solutions in two-way combinations. […]
(§5) The treated plants and control plants were placed in a greenhouse as described above and watered by sub-irrigation to prevent wash-off of the test compounds. After 20-22 d, the condition of the test plants as compared with that of the control plants was determined visually and scored on a scale of 0 to 100 percent where 0 corresponds to no injury and 100 corresponds to complete kill.

[3] = system: Italian ryegrass (LOLMU, Lolium multiflorum); test: Greenhouse postemergence trial, visual injury on Italian ryegrass; conditions: Table 19
Description: as §2, §3, §4, §5

rice (ORYSA) = test: Greenhouse postemergence safening trial, visual injury on rice; conditions: Table 19
Description: as §2, §3, §4, §5

maize (ZEAMX) = test: Greenhouse postemergence safening trial, visual injury on maize
Description: as §2, §3
(§6) Emulsifiable concentrates of each of each pyridine carboxylate herbicide (Compound A or Compound B) were prepared at 100 grams acid equivalent per liter (g ae/L). An aliquot of each emulsifiable concentrate was placed in a 25 mL glass vial and diluted with an aqueous mixture of 1.25% (v/v) ACTIROB® B esterified rapeseed oil (Bayer Crop Science, Research Triangle Park, NC, USA) or MSO® Concentrate with LECI-TECH® methylated soybean oil (Loveland Products, Loveland, CO, USA) to obtain concentrated stock solutions at the highest application rate for each herbicide, based upon a 12 milliliter (mL) application volume at a rate of 187 liters per hectare (L/ha). The concentrated stock solutions were further diluted with an aqueous mixture of 1.25% v/v ACTIROB® B or MSO® Concentrate with LECI-TECH® to obtain stock solutions at reduced application rates for each herbicide. Spray solutions of the herbicide combinations (Compound A or Compound B plus safener) were prepared by adding weighed amounts or aliquots of the safener to the stock solutions of Compound A or Compound B to form 12-mL spray solutions in two-way combinations.
(§7) The spray solutions were applied to the plant material with an overhead Mandel track sprayer equipped with 8002E nozzles calibrated to deliver 187 L/ha over an application area of 0.503 square meters (m^2) at a spray height of 18 inches (43 centimeters (cm)) above the average plant canopy. Control plants were sprayed in the same manner with the solvent blank. All herbicide (component a) application rates are given as “g ae/ha” and all safener (component b) application rates are given as “g ai/ha.”
as §5

[4] = system: pigweed (AMARE, Amaranthus retroflexus); test: Greenhouse postemergence trial, visual injury on pigweed
Description: as §2, §3, §6, §7, §5

[5] = system: Chinese sprangletop (LEFCH, Leptochloa chinensis); test: Greenhouse postemergence trial, visual injury on Chinese sprangletop; conditions: Table 19
Description: as §2, §3, §4, §5

[6] = system: common sunflower (HELAN, Helianthus annuus); test: Greenhouse postemergence trial, visual injury on common sunflower
Description: as §2, §3, §6, §7, §5

[7] = system: nutsedge (CYPES, Cyperus esculentus); test: Greenhouse postemergence trial, visual injury on nutsedge
Description: as §2, §3, §6, §7, §5

[8] = system: Triticum aestivum (spring wheat), TRZAS; test: Greenhouse postemergence safening trial, visual injury on spring wheat
Protocol: as §1

[9] = Compound A 20 g/ha alone, Table 15
[10] = Compound A 40 g/ha alone, Table 14
[11] = Compound A 40 g/ha alone, Table 16
[12] = Compound A 20 g/ha alone, Table 19
[13] = Compound A 40 g/ha alone, Table 17
[14] = Compound A 40 g/ha alone, Table 18
[15] = CQC-mexyl 5 g/ha alone, Table 15
[16] = CQC-mexyl 10 g/ha alone, Table 15
[17] = CQC-mexyl 10 g/ha alone, Table 16
[18] = CQC-mexyl 20 g/ha alone, Table 15
[19] = CQC-mexyl 20 g/ha alone, Table 16
[20] = CQC-mexyl 40 g/ha alone, Table 14
[21] = CQC-mexyl 40 g/ha alone, Table 15
[22] = CQC-mexyl 40 g/ha alone, Table 16
[23] = CQC-mexyl 80 g/ha alone, Table 16
[24] = CQC-mexyl 20 g/ha alone, Table 17
[25] = CQC-mexyl 20 g/ha alone, Table 19
[26] = CQC-mexyl 40 g/ha alone, Table 17
[27] = CQC-mexyl 40 g/ha alone, Table 19
[28] = CQC-mexyl 80 g/ha alone, Table 17
[29] = CQC-mexyl 80 g/ha alone, Table 19
[30] = CQC-mexyl 120 g/ha alone, Table 17

`N#CCOC(=O)c1nc(-c2ccc3cc[nH]c3c2F)c(F)c(N)c1Cl` [Compound A, cyanomethyl 4-amino-3-chloro-5-fluoro-6-(7-fluoro-1H-indol-6-yl)pyridine-2-carboxylate] was tested, and the “% visual injury, Ob” value [1, 9] was 15%, the “% visual injury Δ” value [1, 10] was 0% and the “% visual injury, Ob” value [1, 10] was 40%. For the same compound, the “% visual injury, Ob” value [1, 11] was 30%, the “% visual injury, Ob” value ([1]; herbicide alone 20 g/ha) was 15% and the “% visual injury Δ” value ([1]; herbicide alone 40 g/ha) was 0%. For the same compound, the “% visual injury, Ob” value ([1]; herbicide alone 40 g/ha) was 40% and 30%, the “% visual injury, Ob” value ([2]; Compound A 20 g/ha alone) was 95% and the “% visual injury, Ob” value ([3]; Compound A 20 g/ha alone) was 5%. The “% visual injury, Ob” value (rice (ORYSA); Compound A 20 g/ha alone) was 10%, the “% visual injury, Ob” value (maize (ZEAMX); [12]) was 13% and the “% visual injury, Ob” value (maize (ZEAMX); [13]) was 55%. For the same compound, the “% visual injury, Ob” value (maize (ZEAMX); [14]) was 55%, the “% visual injury, Ob” value [4, 12] was 93% and the “% visual injury, Ob” value [4, 13] was 100%. The “% visual injury, Ob” value [4, 14] was 100%, the “% visual injury, Ob” value ([5]; Compound A 20 g/ha alone) was 60% and the “% visual injury, Ob” value [6, 12] was 95%. The “% visual injury, Ob” value [6, 13] was 100%, the “% visual injury, Ob” value [6, 14] was 100% and the “% visual injury, Ob” value [7, 12] was 30%. For the same compound, the “% visual injury, Ob” value [7, 13] was 73%, the “% visual injury, Ob” value [7, 14] was 73% and the “% visual injury, Ob” value [8, 9] was 15%. The “% visual injury, Ob” value [8, 10] was 45%, the “% visual injury, Ob” value [8, 11] was 40% and the “% visual injury, Ob” value ([8]; herbicide alone 20 g/ha) was 15% and 25%. For the same compound, the “% visual injury, Ob” value ([8]; herbicide alone 40 g/ha) was 45% and 40% and 23%.
`CCCCCC(C)OC(=O)COc1ccc(Cl)c2cccnc12` (stereo not drawn) [CQC-mexyl, cloquintocet-mexyl] was tested, and the “% visual injury, Ob” value [1, 15] was 0%, the “% visual injury, Ob” value [1, 16] was 0% and the “% visual injury, Ob” value [1, 17] was 0%. The “% visual injury, Ob” value [1, 18] was 0%, the “% visual injury, Ob” value [1, 19] was 0% and the “% visual injury Δ” value [1, 20] was 0%. The “% visual injury, Ob” value [1, 20] was 0%, the “% visual injury, Ob” value [1, 21] was 0% and the “% visual injury, Ob” value [1, 22] was 0%. For the same compound, the “% visual injury, Ob” value [1, 23] was 0%, the “% visual injury Δ” value ([1]; safener alone 40 g/ha) was 0% and the “% visual injury, Ob” value ([1]; safener alone 40 g/ha) was 0%. The “% visual injury, Ob” value ([2]; CQC-mexyl 20 g/ha alone) was 0%, the “% visual injury, Ob” value ([2]; CQC-mexyl 40 g/ha alone) was 0% and the “% visual injury, Ob” value ([2]; CQC-mexyl 80 g/ha alone) was 0%. The “% visual injury, Ob” value ([3]; CQC-mexyl 20 g/ha alone) was 0%, the “% visual injury, Ob” value ([3]; CQC-mexyl 40 g/ha alone) was 0% and the “% visual injury, Ob” value ([3]; CQC-mexyl 80 g/ha alone) was 0%. For the same compound, the “% visual injury, Ob” value (rice (ORYSA); CQC-mexyl 20 g/ha alone) was 0%, the “% visual injury, Ob” value (rice (ORYSA); CQC-mexyl 40 g/ha alone) was 0% and the “% visual injury, Ob” value (rice (ORYSA); CQC-mexyl 80 g/ha alone) was 0%. For the same compound, the “% visual injury, Ob” value (maize (ZEAMX); [24]) was 0%, the “% visual injury, Ob” value (maize (ZEAMX); [25]) was 0% and the “% visual injury, Ob” value (maize (ZEAMX); [26]) was 0%. For the same compound, the “% visual injury, Ob” value (maize (ZEAMX); [27]) was 0%, the “% visual injury, Ob” value (maize (ZEAMX); [28]) was 0% and the “% visual injury, Ob” value (maize (ZEAMX); [29]) was 0%. For the same compound, the “% visual injury, Ob” value (maize (ZEAMX); [30]) was 0%, the “% visual injury, Ob” value [4, 24] was 0% and the “% visual injury, Ob” value [4, 25] was 0%. The “% visual injury, Ob” value [4, 26] was 0%, the “% visual injury, Ob” value [4, 27] was 0% and the “% visual injury, Ob” value [4, 28] was 0%. The “% visual injury, Ob” value [4, 29] was 0%, the “% visual injury, Ob” value [4, 30] was 0% and the “% visual injury, Ob” value ([5]; CQC-mexyl 20 g/ha alone) was 0%. The “% visual injury, Ob” value ([5]; CQC-mexyl 40 g/ha alone) was 0%, the “% visual injury, Ob” value ([5]; CQC-mexyl 80 g/ha alone) was 0% and the “% visual injury, Ob” value [6, 24] was 0%. The “% visual injury, Ob” value [6, 25] was 0%, the “% visual injury, Ob” value [6, 26] was 0% and the “% visual injury, Ob” value [6, 27] was 0%. The “% visual injury, Ob” value [6, 28] was 0%, the “% visual injury, Ob” value [6, 29] was 0% and the “% visual injury, Ob” value [6, 30] was 0%. The “% visual injury, Ob” value [7, 24] was 0%, the “% visual injury, Ob” value [7, 25] was 0% and the “% visual injury, Ob” value [7, 26] was 0%. For the same compound, the “% visual injury, Ob” value [7, 27] was 0%, the “% visual injury, Ob” value [7, 28] was 0% and the “% visual injury, Ob” value [7, 29] was 0%. For the same compound, the “% visual injury, Ob” value [7, 30] was 0%, the “% visual injury, Ob” value [8, 15] was 0% and the “% visual injury, Ob” value [8, 16] was 0%. The “% visual injury, Ob” value [8, 17] was 0%, the “% visual injury, Ob” value [8, 18] was 0% and the “% visual injury, Ob” value [8, 19] was 0%. For the same compound, the “% visual injury, Ob” value [8, 20] was 0%, the “% visual injury, Ob” value [8, 21] was 0% and the “% visual injury, Ob” value [8, 22] was 0%. For the same compound, the “% visual injury, Ob” value [8, 23] was 0%, the “% visual injury, Ob” value ([8]; safener alone 5 g/ha) was 0% and the “% visual injury, Ob” value ([8]; safener alone 10 g/ha) was 0%. For the same compound, the “% visual injury, Ob” value ([8]; safener alone 20 g/ha) was 0% and the “% visual injury, Ob” value ([8]; safener alone 40 g/ha) was 0%.
